According to the NIST ThermoML archive (doi:10.1016/j.jct.2017.07.011):

Assay: xn = mol fraction of the nth substance listed
Conditions: 100 kPa, Liquid, Vibrating tube method

CCC(C)(C)O [2-methylbutan-2-ol] + O
mass density [kg/m3]
Conditions	x1 = 0.00122	x1 = 0.00255	x1 = 0.00412	x1 = 0.00507	x1 = 0.00607	x1 = 0.0079	x1 = 0.00994	x1 = 0.01252	x1 = 0.01488	x1 = 1
273.65 K	999.033	998.16	997.224	996.687	996.151	995.216	994.277	993.23	992.364	826.7
274.15 K	999.058	998.181	997.247	996.703	996.17	995.235	994.284	993.232	992.356	826.3
274.65 K	999.08	998.206	997.266	996.721	996.184	995.25	994.296	993.233	992.353	825.8
275.15 K	999.099	998.222	997.286	996.74	996.2	995.262	994.3	993.231	992.341	825.4
275.65 K	999.114	998.237	997.295	996.749	996.207	995.267	994.301	993.227	992.328	824.9
276.15 K	999.13	998.247	997.305	996.76	996.213	995.266	994.297	993.215	992.313	824.5
276.65 K	999.132	998.253	997.309	996.765	996.216	995.269	994.293	993.203	992.291	824
277.15 K	999.134	998.251	997.307	996.759	996.215	995.258	994.279	993.181	992.265	823.5
277.65 K	999.129	998.246	997.299	996.748	996.2	995.243	994.261	993.157	992.23	823.1
278.15 K	999.126	998.235	997.295	996.741	996.193	995.233	994.246	993.13	992.197	822.6
278.65 K	999.113	998.23	997.279	996.728	996.177	995.217	994.22	993.102	992.159	822.2
279.15 K	999.102	998.216	997.265	996.713	996.158	995.193	994.199	993.072	992.123	821.7
279.65 K	999.075	998.186	997.235	996.681	996.124	995.158	994.162	993.023	992.067	821.3
280.15 K	999.056	998.17	997.213	996.659	996.101	995.132	994.13	992.984	992.025	820.8
280.65 K	999.032	998.146	997.189	996.631	996.074	995.095	994.093	992.943	991.972	820.3
281.15 K	999.006	998.115	997.154	996.599	996.039	995.06	994.049	992.894	991.918	819.9
281.65 K	998.97	998.079	997.123	996.561	996	995.021	994.007	992.846	991.86	819.4
282.15 K	998.939	998.044	997.086	996.522	995.962	994.976	993.958	992.79	991.8	819
